According to EPA's ToxValDB 9.5:
Where “and” joins values, the source holds several entries; their conditions need not be identical. Equal values may be shown once.

Tests used:
Oryctolagus sp. = settings: for LD50: acute
Rattus norvegicus [1] = settings: for LC50 / LD50: acute
Rattus norvegicus [2] = settings: oral
[3] = subchronic, duration: 90 days, oral, gavage, Sprague-Dawley
[4] = subchronic, duration: 90 days, oral, diet, Wistar
[5] = chronic, oral, diet, Sprague-Dawley
[6] = reproduction developmental, duration: 4 weeks, inhalation, particle, Sprague-Dawley
[7] = short-term, duration: 4 weeks, oral, diet, Crl:CD(SD)
[8] = reproduction developmental, duration: 39 days, oral, gavage, generation: F0
[9] = short-term, duration: 28 days, oral, gavage
[10] = short-term, duration: 28 days, gavage, M, Sprague-Dawley, Clinical Observation: Locomotor activity decrease, Salivation + Blood Chemistry: Ch E decrease
[11] = short-term, duration: 28 days, oral, diet, Sprague-Dawley

SMILES: CCCCCCCCCc1cc2ccccc2c(S(=O)(=O)O)c1CCCCCCCCC [Dinonylnaphthalenesulfonic acid]
- LD50 (Oryctolagus sp.; dermal, New Zealand): > 2000 mg/kg
- LC50 (Rattus norvegicus [1]; Inhalation, Wistar): > 200 µg/mL
- LD50 (Rattus norvegicus [1]; oral, gavage, Sprague-Dawley): > 5000 mg/kg

SMILES: O=C(OCC1CCC2OC2C1)C1CCC2OC2C1 (centres undefined) [ECC]
- LD50 (Oryctolagus sp.; dermal, occlusive, New Zealand): > 20 mg/kg
- LD50 (Rattus norvegicus [1]; oral, gavage, Sprague-Dawley): 5000 mg/kg
- NOAEL (Rattus norvegicus [1]; developmental, duration: 14 days, oral, gavage, Sprague-Dawley): 125 mg/kg-day
- NOAEL (Rattus norvegicus [1]; reproduction developmental, duration: 14 days, oral, gavage, F, Sprague-Dawley): 25 mg/kg-day
- NOAEL (Rattus norvegicus [1]; reproduction developmental, duration: 90 days, oral, gavage, Sprague-Dawley, generation: F0): ≥ 500 mg/kg-day
- LOAEL (Rattus norvegicus [1]; short-term, duration: 14 days, oral, gavage, Sprague-Dawley): 100 mg/kg-day
- LOAEL (Rattus norvegicus [1]; [3]): 50 mg/kg-day
- NOAEL (Rattus norvegicus [1]; [3]): 5 mg/kg-day

SMILES: CCCCCCC=O [Heptanal]
- LD50 (Oryctolagus sp.; dermal): > 5000 mg/kg
- LC50 (Rattus norvegicus [1]; Inhalation, Sprague-Dawley): > 4.7 µg/mL
- LD50 (Rattus norvegicus [1]; oral, gavage): > 5000 mg/kg
- NOAEL (Rattus norvegicus [1]; reproduction developmental, oral, gavage, F, Wistar): 2050 mg/kg-day
- LOAEL (Rattus norvegicus [1]; [4]): 150 mg/kg-day
- NOAEL (Rattus norvegicus [1]; [4]): 37 mg/kg-day

SMILES: CCCCCCCCCCCCN(C)C [N,N-Dimethyldodecan-1-amine]
- LD50 (Oryctolagus sp.; dermal, occlusive, New Zealand): 5000 mg/kg
- LD50 (Rattus norvegicus [1]; oral, gavage, Wistar): 1220 mg/kg and 790 mg/kg

SMILES: O=C1c2ccccc2C(=O)N1SC1CCCCC1 [N-(Cyclohexylthio)phthalimide]
- LD50 (Oryctolagus sp.; dermal, occlusive, New Zealand): > 5010 mg/kg
- LOAEL (Rattus norvegicus [1]; [5]): 150 mg/kg-day
- NOAEL (Rattus norvegicus [1]; [5]): 50 mg/kg-day

SMILES: CCNc1ccccc1 [N-Ethylaniline]
- LD50 (Oryctolagus sp.; dermal, New Zealand): > 2000 mg/kg
- LD50 (Rattus norvegicus [1]; dermal): 1920 mg/kg
- LC50 (Rattus norvegicus [1]; inhalation, Sprague-Dawley): ≥ 1.13 µg/mL and ≤ 1.48 µg/mL
- LD50 (Rattus norvegicus [1]; oral): 300 mg/kg
- LD50 (Rattus norvegicus [1]; oral, gavage, Sprague-Dawley): ≥ 332 mg/kg and ≤ 402 mg/kg

SMILES: c1ccc2sc(SN3CCOCC3)nc2c1 [N-Oxydiethylene-2-benzothiazylsulfenamide]
- LD50 (Oryctolagus sp.; dermal, occlusive, New Zealand): > 5010 mg/kg
- NOAEL (Oryctolagus sp.; reproduction developmental, duration: 21 days, dermal, New Zealand): 2000 mg/kg-day
- LC50 (Rattus norvegicus [1]; inhalation, particle): > 151 µg/mL
- LD50 (Rattus norvegicus [1]; oral): 7000 mg/kg
- LD50 (Rattus norvegicus [1]; oral, gavage, Sprague-Dawley): 12600 mg/kg and > 7940 mg/kg
- LD50 (Rattus norvegicus [1]; oral, gavage, Wistar): > 10000 mg/kg
- NOAEL (Rattus norvegicus [1]; developmental, duration: 10 days, oral, gavage): 1000 mg/kg-day
- NOAEL (Rattus norvegicus [1]; developmental, duration: 21 days, oral, diet, Wistar): 270 mg/kg-day
- LOAEL (Rattus norvegicus [1]; [6]): 10.2 mg/m3
- NOAEL (Rattus norvegicus [1]; [6]): 9.8 mg/m3
- NOAEL (Rattus norvegicus [1]; reproduction developmental, duration: 10 days, oral, gavage, F): 100 mg/kg-day
- NOAEL (Rattus norvegicus [1]; reproduction developmental, duration: 21 days, oral, diet, F, Wistar): 270 mg/kg-day
- LOAEL (Rattus norvegicus [1]; [7]): 500 mg/kg-day
- NOAEL (Rattus norvegicus [1]; [7]): 200 mg/kg-day

SMILES: CCCCCCCCCCCCOC(=O)CS(=O)(=O)[O-].[Na+] [Sodium 2-(dodecyloxy)-2-oxoethane-1-sulphonate]
- LD50 (Oryctolagus sp.; dermal, occlusive, New Zealand): > 2000 mg/kg
- LD50 (Rattus norvegicus [1]; oral, Wistar): 1000 mg/kg
- LD50 (Rattus norvegicus [1]; oral, gavage, Sprague-Dawley): > 2000 mg/kg
- NOAEL (Rattus norvegicus [1]; reproduction developmental, duration: 39 days, oral, gavage): 1000 mg/kg-day
- LOAEL (Rattus norvegicus [1]; [8]): 1000 mg/kg-day
- NOAEL (Rattus norvegicus [1]; [8]): 200 mg/kg-day
- LOAEL (Rattus norvegicus [1]; [9]): 800 mg/kg-day
- NOAEL (Rattus norvegicus [1]; [9]): 200 mg/kg-day

SMILES: [Na+].[S-]c1nc2ccccc2s1 [Sodium 2-mercaptobenzothiolate]
- LD50 (Oryctolagus sp.; dermal): > 7940 mg/kg
- LD50 (Oryctolagus sp.; dermal, occlusive, New Zealand): > 7940 mg/kg
- LC50 (Rattus norvegicus [1]; inhalation): > 6.5 µg/mL
- LC50 (Rattus norvegicus [1]; inhalation, Sprague-Dawley): > 1.3 µg/mL
- LD50 (Rattus norvegicus [1]; oral): 4350 mg/kg
- LD50 (Rattus norvegicus [1]; oral, Sprague-Dawley): 1480 mg/kg and 4350 mg/kg

SMILES: COc1c(Cl)ccc(Cl)c1C(=O)[O-].[Na+] [Sodium dicamba]
- LD50 (Oryctolagus sp.; dermal, occlusive, New Zealand): > 400 mg/kg
- LD50 (Rattus norvegicus [1]; oral, Sprague-Dawley): > 1000 mg/kg

SMILES: CCCCCCCCC(=O)OCC(CC)(COC(=O)CCCCCCCC)COC(=O)CCCCCCCC [Trimethylolpropane trinonanoate]
- LD50 (Oryctolagus sp.; dermal): > 2000 mg/kg
- LD50 (Rattus norvegicus [1]; oral, gavage, Crl:CD(SD)): > 2000 mg/kg
- LD50 (Rattus norvegicus [1]; oral, gavage, Sherman Wistar): > 5000 mg/kg
- LD50 (Rattus norvegicus [1]; oral, gavage, Sprague-Dawley): > 2000 mg/kg
- LD50 (Rattus norvegicus [1]; oral, gavage, Wistar): > 2000 mg/kg

SMILES: O=P(OC(CCl)CCl)(OC(CCl)CCl)OC(CCl)CCl [Tris(1,3-dichloro-2-propyl) phosphate]
- LD50 (Oryctolagus sp.; dermal): > 4640 mg/kg
- LD50 (Oryctolagus sp.; oral, gavage, Dutch-belted): 6800 mg/kg
- LD50 (Rattus norvegicus [1]; oral, gavage, Sprague-Dawley): 3160 mg/kg
- NOAEL (Rattus norvegicus [1]; chronic, duration: 12 months, oral, diet, Sprague-Dawley): 5 mg/kg-day
- NOAEL (Rattus norvegicus [1]; developmental, duration: 10 days, oral, gavage, Sprague-Dawley): 100 mg/kg-day
- NOAEL (Rattus norvegicus [1]; reproduction developmental, duration: 10 days, oral, gavage, F, Sprague-Dawley): 25 mg/kg-day

SMILES: Cc1ccc(OP(=O)(Oc2ccc(C)cc2)Oc2ccc(C)cc2)cc1.Cc1cccc(OP(=O)(Oc2cccc(C)c2)Oc2cccc(C)c2)c1.Cc1ccccc1OP(=O)(Oc1ccccc1C)Oc1ccccc1C [Tris(methylphenyl) phosphate]
- NOAEL (Rattus norvegicus [2]; [10]): 200 mg/kg-day
- NOEL (Rattus norvegicus [2]; [10]): < 40 mg/kg-day
- NOEL (Rattus norvegicus [2]; subchronic, duration: 13 weeks, diet, F, Fischer 344, Clinical Observation: Emaciation + Body Weight Changes: decrease + Food Consumption: decrease + Hematology: Hct decrease, RBC decrease, Hgb …): 65 mg/kg-day
- NOEL (Rattus norvegicus [2]; subchronic, duration: 13 weeks, diet, M/F, Fischer 344, Clinical Observation: Emaciation + Body Weight Changes: decrease + Food Consumption: decrease + Hematology: Hct decrease, RBC decrease, Hgb …): < 86.4 mg/kg-day
- NOEL (Rattus norvegicus [2]; subchronic, duration: 13 weeks, gavage, M/F, Fischer 344, Body Weight Changes: decrease + Hematology: Hct decrease, Hgb decrease, RBC decrease + Blood Chemistry: Ch E decrease + Absolute Organ …): < 50 mg/kg-day
- LD50 (Oryctolagus sp.; dermal): > 10000 mg/kg
- LC50 (Rattus norvegicus [1]; Inhalation, Sprague-Dawley): > 5.2 µg/mL
- LC50 (Rattus norvegicus [1]; inhalation, Wistar): < 200 µg/mL
- LD50 (Rattus norvegicus [1]; oral, gavage, Wistar): > 20000 mg/kg
- LOAEL (% diet) (Rattus norvegicus [1]; [11]): 0.5
- NOAEL (% diet) (Rattus norvegicus [1]; [11]): 0.1
